According to PubChem BioAssay AID1963864 (Molecular Pharmacology Branch, DTP, NCI, 2024):

Tested on: KRAS PDC multicell spheroid viability
Assay: Anticancer human tumor 521955-158-R6-J3-PDC patient-derived pancreatic carcinoma cell line growth inhibition [KRAS2]
Conditions: for IC50: curve of first compound; for viability, T/C: stronger effect = lower value
Procedure, shortened: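 Combination screen of spheroid viability in tumor-cell co-cultures with endothelial (HUVEC) and mesenchymal stem cell stroma. Each agent was tested in half-log dilutions, topping at clinical Cmax or at 10 microM without a known Cmax.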

[1] = second compound 0.1 µM, first compound 0.0316 µM
[2] = second compound 0.316 µM, first compound 0.0316 µM
[3] = second compound 1 µM, first compound 0.0316 µM
[4] = second compound 3.16 µM, first compound 0.0316 µM
[5] = second compound 10 µM, first compound 0.0316 µM
[6] = second compound 0.1 µM, first compound 0.1 µM
[7] = second compound 0.1 µM, first compound 0.316 µM
[8] = second compound 0.1 µM, first compound 1 µM
[9] = second compound 0.1 µM, first compound 3.16 µM
[10] = second compound 0.1 µM, first compound 10 µM
[11] = second compound 0.316 µM, first compound 0.1 µM
[12] = second compound 0.316 µM, first compound 0.316 µM
[13] = second compound 0.316 µM, first compound 1 µM
[14] = second compound 0.316 µM, first compound 3.16 µM
[15] = second compound 0.316 µM, first compound 10 µM
[16] = second compound 1 µM, first compound 0.1 µM
[17] = second compound 1 µM, first compound 0.316 µM
[18] = second compound 1 µM, first compound 1 µM
[19] = second compound 1 µM, first compound 3.16 µM
[20] = second compound 1 µM, first compound 10 µM
[21] = second compound 3.16 µM, first compound 0.1 µM
[22] = second compound 3.16 µM, first compound 0.316 µM
[23] = second compound 3.16 µM, first compound 1 µM
[24] = second compound 3.16 µM, first compound 3.16 µM
[25] = second compound 3.16 µM, first compound 10 µM
[26] = second compound 10 µM, first compound 0.1 µM
[27] = second compound 10 µM, first compound 0.316 µM
[28] = second compound 10 µM, first compound 1 µM
[29] = second compound 10 µM, first compound 3.16 µM
[30] = second compound 10 µM, first compound 10 µM
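Further: drug exposure lasted seven days.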
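Wherever viability, T/C is given: 100% = DMSO vehicle wells and lower means fewer viable cells.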

Molecule `CC(=O)Nc1cccc(-n2c(=O)n(C3CC3)c(=O)c3c(Nc4ccc(I)cc4F)n(C)c(=O)c(C)c32)c1` + COc1cc2nc(C)nc(NC(C)c3cc(N)cc(C(F)(F)F)c3)c2cc1OC1CCOC1 has an IC50 (second compound 0.1 µM) of 0.0167 µM, an IC50 (second compound 0.316 µM) of 0.0102 µM and an IC50 (second compound 1 µM) of 0.0123 µM. For the same molecule, the IC50 (second compound 3.16 µM) was 0.00623 µM, the IC50 (second compound 10 µM) was < 0.0001 µM and the viability, T/C (second compound 0.1 µM, first compound 0.0001 µM) was 88%. The viability, T/C (second compound 0.1 µM, first compound 0.000316 µM) was 88.4%, the viability, T/C (second compound 0.1 µM, first compound 0.001 µM) was 92.4% and the viability, T/C (second compound 0.1 µM, first compound 0.00316 µM) was 81.7%. For the same molecule, the viability, T/C (second compound 0.1 µM, first compound 0.01 µM) was 60.7%, the viability, T/C [1] was 36.9% and the viability, T/C (second compound 0.316 µM, first compound 0.0001 µM) was 88.1%. The viability, T/C (second compound 0.316 µM, first compound 0.000316 µM) was 83.6%, the viability, T/C (second compound 0.316 µM, first compound 0.001 µM) was 75.3% and the viability, T/C (second compound 0.316 µM, first compound 0.00316 µM) was 67.1%. For the same molecule, the viability, T/C (second compound 0.316 µM, first compound 0.01 µM) was 48.8%, the viability, T/C [2] was 37.4% and the viability, T/C (second compound 1 µM, first compound 0.0001 µM) was 81.4%. For the same molecule, the viability, T/C (second compound 1 µM, first compound 0.000316 µM) was 86.6%, the viability, T/C (second compound 1 µM, first compound 0.001 µM) was 81.1% and the viability, T/C (second compound 1 µM, first compound 0.00316 µM) was 67.5%. It also gave a viability, T/C (second compound 1 µM, first compound 0.01 µM) of 55.4%, a viability, T/C [3] of 31.8% and a viability, T/C (second compound 3.16 µM, first compound 0.0001 µM) of 72.6%. For the same molecule, the viability, T/C (second compound 3.16 µM, first compound 0.000316 µM) was 79.3%, the viability, T/C (second compound 3.16 µM, first compound 0.001 µM) was 76.7% and the viability, T/C (second compound 3.16 µM, first compound 0.00316 µM) was 54.6%. For the same molecule, the viability, T/C (second compound 3.16 µM, first compound 0.01 µM) was 45.5%, the viability, T/C [4] was 21.8% and the viability, T/C (second compound 10 µM, first compound 0.0001 µM) was 20.7%. It also gave a viability, T/C (second compound 10 µM, first compound 0.000316 µM) of 21.2%, a viability, T/C (second compound 10 µM, first compound 0.001 µM) of 10.6% and a viability, T/C (second compound 10 µM, first compound 0.00316 µM) of 1.6%. For the same molecule, the viability, T/C (second compound 10 µM, first compound 0.01 µM) was 4.51% and the viability, T/C [5] was 2.2%.

Work on `COC(=O)c1ccc2c(C(=Nc3ccc(N(C)C(=O)CN4CCN(C)CC4)cc3)c3ccccc3)c(O)[nH]c2c1` + COc1cc2nc(C)nc(NC(C)c3cc(N)cc(C(F)(F)F)c3)c2cc1OC1CCOC1 yielded an IC50 (second compound 0.1 µM) of 3.01 µM, an IC50 (second compound 0.316 µM) of 3.53 µM and an IC50 (second compound 1 µM) of 2.41 µM. For the same molecule, the IC50 (second compound 3.16 µM) was 1.72 µM, the IC50 (second compound 10 µM) was < 0.0316 µM and the viability, T/C [1] was 90%. It also gave a viability, T/C [6] of 95.7%, a viability, T/C [7] of 107% and a viability, T/C [8] of 115%. For the same molecule, the viability, T/C [9] was 47.6%, the viability, T/C [10] was 0.24% and the viability, T/C [2] was 93.9%. It also gave a viability, T/C [11] of 90.3%, a viability, T/C [12] of 91.4% and a viability, T/C [13] of 122%. The viability, T/C [14] was 55.2%, the viability, T/C [15] was 0.21% and the viability, T/C [3] was 84%. For the same molecule, the viability, T/C [16] was 94.4%, the viability, T/C [17] was 107% and the viability, T/C [18] was 115%. For the same molecule, the viability, T/C [19] was 34.5%, the viability, T/C [20] was 1.78% and the viability, T/C [4] was 75.8%. The viability, T/C [21] was 75.5%, the viability, T/C [22] was 108% and the viability, T/C [23] was 101%. The viability, T/C [24] was 4.81%, the viability, T/C [25] was 0.15% and the viability, T/C [5] was 42%. The viability, T/C [26] was 29.7%, the viability, T/C [27] was 6.94% and the viability, T/C [28] was 2.96%. The viability, T/C [29] was 2.48% and the viability, T/C [30] was 0.99%.

For `COc1cc(Nc2ncc3c(n2)-c2ccc(Cl)cc2C(c2c(F)cccc2OC)=NC3)ccc1C(=O)O` + COc1cc2nc(C)nc(NC(C)c3cc(N)cc(C(F)(F)F)c3)c2cc1OC1CCOC1, the IC50 (second compound 0.1 µM) was > 10 µM, the IC50 (second compound 0.316 µM) was > 10 µM and the IC50 (second compound 1 µM) was > 10 µM. For the same molecule, the IC50 (second compound 3.16 µM) was > 10 µM, the IC50 (second compound 10 µM) was < 0.0316 µM and the viability, T/C [1] was 102%. It also gave a viability, T/C [6] of 88.3%, a viability, T/C [7] of 89% and a viability, T/C [8] of 88.9%. For the same molecule, the viability, T/C [9] was 97.1%, the viability, T/C [10] was 90.4% and the viability, T/C [2] was 93.4%. For the same molecule, the viability, T/C [11] was 86.3%, the viability, T/C [12] was 87.4% and the viability, T/C [13] was 99.2%. It also gave a viability, T/C [14] of 96.8%, a viability, T/C [15] of 88.6% and a viability, T/C [3] of 80.7%. It also gave a viability, T/C [16] of 84.4%, a viability, T/C [17] of 87.7% and a viability, T/C [18] of 89.3%. The viability, T/C [19] was 95.3%, the viability, T/C [20] was 83.4% and the viability, T/C [4] was 76%. The viability, T/C [21] was 72.5%, the viability, T/C [22] was 82.1% and the viability, T/C [23] was 78.5%. The viability, T/C [24] was 80.6%, the viability, T/C [25] was 71.2% and the viability, T/C [5] was 68.9%. It also gave a viability, T/C [26] of 23.1%, a viability, T/C [27] of 30% and a viability, T/C [28] of 31.2%. The viability, T/C [29] was 56.8% and the viability, T/C [30] was 23%.

With `O=C(c1cc(Cc2n[nH]c(=O)c3ccccc23)ccc1F)N1CCN(C(=O)C2CC2)CC1` + COc1cc2nc(C)nc(NC(C)c3cc(N)cc(C(F)(F)F)c3)c2cc1OC1CCOC1 the IC50 (second compound 0.1 µM) was > 10 µM, the IC50 (second compound 0.316 µM) was > 10 µM and the IC50 (second compound 1 µM) was > 10 µM. The IC50 (second compound 3.16 µM) was > 10 µM, the IC50 (second compound 10 µM) was > 10 µM and the viability, T/C [1] was 82.4%. For the same molecule, the viability, T/C [6] was 76.4%, the viability, T/C [7] was 86.1% and the viability, T/C [8] was 75.5%. For the same molecule, the viability, T/C [9] was 69.2%, the viability, T/C [10] was 80.2% and the viability, T/C [2] was 88.9%. It also gave a viability, T/C [11] of 88.8%, a viability, T/C [12] of 80.5% and a viability, T/C [13] of 70.5%. For the same molecule, the viability, T/C [14] was 67.1%, the viability, T/C [15] was 77.7% and the viability, T/C [3] was 90.9%. It also gave a viability, T/C [16] of 88.3%, a viability, T/C [17] of 97.1% and a viability, T/C [18] of 70.8%. For the same molecule, the viability, T/C [19] was 70.3%, the viability, T/C [20] was 83.5% and the viability, T/C [4] was 70.1%. The viability, T/C [21] was 75.6%, the viability, T/C [22] was 67.2% and the viability, T/C [23] was 60.8%. The viability, T/C [24] was 63.6%, the viability, T/C [25] was 75.9% and the viability, T/C [5] was 55.4%. The viability, T/C [26] was 59.5%, the viability, T/C [27] was 55.9% and the viability, T/C [28] was 53.3%. For the same molecule, the viability, T/C [29] was 65.3% and the viability, T/C [30] was 77.4%.
